Patent publication US7709636B2, “Pyrazole sulfonylurea compound and herbicide” (Nissan Chemical Industries, Ltd., priority 2004, dated 2010)

What was measured:
[1] = system: Echinochloa crus-galli; assay: Herbicidal effect test in submerged condition by treatment during weed-growth stage (1); format: in vivo; conditions: 0.64 g/a, treated at 1st to 2nd leaf stage, 3 weeks after treatment
Description: (§1) Herbicidal Effect Test in Submerged Condition by Treatment During Weed-Growth Stage (1) After alluvial soil was placed in a styrol cup of 1/30000 are, water was poured therein and mixed, and adjusted to a submerged condition of water depth 4 cm. After seeds of Echinochloa crus-galli, Scirpus juncoides and Monochoria vaginalis were sown in the cup, the plants were grown by putting the cup in a green house at 25 to 30° C. When Echinochloa crus-galli, Scirpus juncoides and Monochoria vaginalis reached 1st to 2nd leaf stage, the wettable powder of the present invention prepared according to Formulation Example 1 was diluted with water so as to give a predetermined formulation amount, and the surface of the water was treated with the diluted wettable powder. The herbicidal effect for each plant was investigated 3 weeks after treatment with the herbicide according to the criteria indicated in Test Example 1.

[2] = system: Monochoria vaginalis; assay: as above; format: in vivo; conditions: 0.64 g/a, treated at 1st to 2nd leaf stage, 3 weeks after treatment
Description: as §1

[3] = system: Scirpus juncoides; assay: as above; format: in vivo; conditions: 0.64 g/a, treated at 1st to 2nd leaf stage, 3 weeks after treatment
Description: as §1

[4] = system: Abutilon avicennae; assay: Herbicidal effect test by soil treatment; format: in vivo; conditions: 1.6 g/a, 3 weeks after treatment
Description: (§2) Herbicidal Effect Test by Soil Treatment
(§3) Sterilized diluvial soil was placed in a plastic box having a size of length 21 cm, width 13 cm and depth 7 cm, seeds Echinochloa crus-galli, Digitaria adscendes, Setaria viridis, Avena fatua, Black-grass, Abutilon avicennae, Ambrosia elatior, Amaranthus retroflexus, Chenopodium album, Polygonum blumei, Stellaria media, Zea mays (corn), Glycine max (soybean), Oryza sativa (rice), Triticum aestivum (wheat) and Beta vulgaris (beat) were sown interspatially, covered with about 1.5 cm of soil, and then the wettable powder of the present invention prepared according to Formulation Example 1 was diluted with water so as to give a predetermined formulation amount, and the surface of the soil was uniformly treated with the diluted wettable powder by use of a small-sized spray. The herbicidal effect for each plant was investigated 3 weeks after treatment with the herbicide according to the criteria indicated in Test Example 1.

[5] = system: Amaranthus retroflexus; assay: Herbicidal effect test by soil treatment; format: in vivo; conditions: 1.6 g/a, 3 weeks after treatment
Description: as §2, §3

[6] = system: Ambrosia elatior; assay: Herbicidal effect test by soil treatment; format: in vivo; conditions: 1.6 g/a, 3 weeks after treatment
Description: as §2, §3

[7] = system: Avena fatua; assay: Herbicidal effect test by soil treatment; format: in vivo; conditions: 1.6 g/a, 3 weeks after treatment
Description: as §2, §3

[8] = system: Beta vulgaris (beet); assay: Herbicidal effect test by soil treatment; format: in vivo; conditions: 1.6 g/a, 3 weeks after treatment
Description: as §2, §3

[9] = system: Black-grass; assay: Herbicidal effect test by soil treatment; format: in vivo; conditions: 1.6 g/a, 3 weeks after treatment
Description: as §2, §3

[10] = system: Chenopodium album; assay: Herbicidal effect test by soil treatment; format: in vivo; conditions: 1.6 g/a, 3 weeks after treatment
Description: as §2, §3

[11] = system: Digitaria adscendes; assay: Herbicidal effect test by soil treatment; format: in vivo; conditions: 1.6 g/a, 3 weeks after treatment
Description: as §2, §3

[12] = system: Echinochloa crus-galli; assay: Herbicidal effect test by soil treatment; format: in vivo; conditions: 1.6 g/a, 3 weeks after treatment
Description: as §2, §3

[13] = system: Polygonum blumei; assay: Herbicidal effect test by soil treatment; format: in vivo; conditions: 1.6 g/a, 3 weeks after treatment
Description: as §2, §3

[14] = system: Setaria viridis; assay: Herbicidal effect test by soil treatment; format: in vivo; conditions: 1.6 g/a, 3 weeks after treatment
Description: as §2, §3

[15] = system: Stellaria media; assay: Herbicidal effect test by soil treatment; format: in vivo; conditions: 1.6 g/a, 3 weeks after treatment
Description: as §2, §3

[16] = system: Triticum aestivum (wheat); assay: Herbicidal effect test by soil treatment; format: in vivo; conditions: 1.6 g/a, 3 weeks after treatment
Description: as §2, §3

[17] = system: corn (Zea mays); assay: Herbicidal effect test by soil treatment; format: in vivo; conditions: 1.6 g/a, 3 weeks after treatment
Description: as §2, §3

[18] = system: soybean (Glycine max); assay: Herbicidal effect test by soil treatment; format: in vivo; conditions: 1.6 g/a, 3 weeks after treatment
Description: as §2, §3

[19] = system: direct sown rice; assay: Herbicidal effect test by soil treatment; format: in vivo, Oryza sativa; conditions: 1.6 g/a, 3 weeks after treatment
Description: as §2, §3

## COc1cc(OC)nc(NC(=O)NS(=O)(=O)c2c(C3=NOC(C)CO3)c(C)nn2C)n1 (stereo not shown) [Compound 9, N-((4,6-dimethoxypyrimidin-2-yl)aminocarbonyl)-1,3-dimethyl-4-(6-methyl-5H,6H-1,4,2-dioxadin-3-yl)pyrazole-5-sulfonamide]
[1]
  herbicidal effect, A: Echinochloa crus-galli: 5 (Herbicidal rate 90% or more (almost complete death))
[2]
  herbicidal effect, C: Monochoria vaginalis: 5 (Herbicidal rate 90% or more (almost complete death))
[3]
  herbicidal effect, B: Scirpus juncoides: 5 (Herbicidal rate 90% or more (almost complete death))
[4]
  herbicidal effect, H: Abutilon avicennae: 4 (Herbicidal rate 70% or more and less than 90%)
[5]
  herbicidal effect, J: Amaranthus retroflexus: 5 (Herbicidal rate 90% or more (almost complete death))
[6]
  herbicidal effect, I: Ambrosia elatior: 5 (Herbicidal rate 90% or more (almost complete death))
[7]
  herbicidal effect, F: Avena fatua: 3 (Herbicidal rate 40% or more and less than 70%)
[8]
  herbicidal effect, f: Beta vulgaris (beet): 5 (Herbicidal rate 90% or more (almost complete death))
[9]
  herbicidal effect, G: Black-grass: 5 (Herbicidal rate 90% or more (almost complete death))
[10]
  herbicidal effect, K: Chenopodium album: 5 (Herbicidal rate 90% or more (almost complete death))
[11]
  herbicidal effect, D: Digitaria adscendes: 4 (Herbicidal rate 70% or more and less than 90%)
[12]
  herbicidal effect, A: Echinochloa crus-galli: 4 (Herbicidal rate 70% or more and less than 90%)
[13]
  herbicidal effect, L: Polygonum blumei: 5 (Herbicidal rate 90% or more (almost complete death))
[14]
  herbicidal effect, E: Setaria viridis: 4 (Herbicidal rate 70% or more and less than 90%)
[15]
  herbicidal effect, M: Stellaria media: 5 (Herbicidal rate 90% or more (almost complete death))
[16]
  herbicidal effect, e: Triticum aestivum (wheat): 5 (Herbicidal rate 90% or more (almost complete death))
[17]
  herbicidal effect, b: corn (Zea mays): 5 (Herbicidal rate 90% or more (almost complete death))
[18]
  herbicidal effect, c: soybean (Glycine max): 5 (Herbicidal rate 90% or more (almost complete death))
[19]
  herbicidal effect, d: direct sown rice: 5 (Herbicidal rate 90% or more (almost complete death))
